Drawing on patent US5688960A, “Substituted oximes, hydrazones and olefins useful as neurokinin antagonists” (Schering Corporation, priority 1996, dated 1997), this text covers Ki for two compounds.

In assay [1] the target is T1, human neurokinin 1 (NK1) receptor (Homo sapiens, UniProt P25103).
T1 construct: expressed in transfected cells; host or cells: Chinese Hamster ovary (CHO) cells; membranes
The assay is described as follows: Neurokinin receptor binding assay, [3H]-Substance P competition, CHO cell membranes (NK1). As to conditions: [3H]-Substance P 0.8 nM. How it is done: (§1) Chinese Hamster ovary (CHO) cells transfected with the coding regions for the human neurokinin 1 (NK1) of the human neurokinin 2 (NK2) receptors are grown in Dulbecco's minimal essential medium supplemented with 10% fetal calf serum, 0.1 mM non-essential amino acids, 2 mM glutamine, 100 units/ml of penicillin and streptomycin, and 0.8 mg of G418/ml at 37° C. in a humidified atmosphere containing 5% CO2.
(§2) Cells are detached from T-175 flasks with a sterile solution containing 5 mM EDTA in phosphate buffered saline. Cells are harvested by centrifugation and washed in RPMI media at […] for 5 minutes. […]
(§3) To assay receptor binding, 50 μl of [^3 H]-Substance P (9-Sar, 11-Met) (specific activity 41 Ci/mmol) (Dupont-NEN) (0.8 nM for the NK-1 assay) or [^3 H]-Neurokinin A (specific activity 114 Ci/mmole) (Zenca) (1.0 nM for the NK-2 assay) is added to tubes containing buffer (50 mM Tris-HCl (pH 7.4) with 1 mM MnCl2 and 0.2% Bovine Serum Albumin) and either DMSO or test compound. […] Filters are added to 6 mls of Ready-Safe liquid scintillation cocktail and quantified by liquid scintillation spectrometry in a LKB 1219 RackBeta counter. Non-specific binding is determined by the addition of either 1 μM of CP-99994 (NK-1) or 1 μM SR-48968 (NK-2) (both synthesized by the chemistry department of Schering-Plough Research Institute). […]

The target of assay [2] is T2, human neurokinin 2 (NK2) receptor (Homo sapiens, UniProt P21452).
T2 construct: expressed in transfected cells; host or cells: Chinese Hamster ovary (CHO) cells; membranes
T2 sequence (P21452 1-398): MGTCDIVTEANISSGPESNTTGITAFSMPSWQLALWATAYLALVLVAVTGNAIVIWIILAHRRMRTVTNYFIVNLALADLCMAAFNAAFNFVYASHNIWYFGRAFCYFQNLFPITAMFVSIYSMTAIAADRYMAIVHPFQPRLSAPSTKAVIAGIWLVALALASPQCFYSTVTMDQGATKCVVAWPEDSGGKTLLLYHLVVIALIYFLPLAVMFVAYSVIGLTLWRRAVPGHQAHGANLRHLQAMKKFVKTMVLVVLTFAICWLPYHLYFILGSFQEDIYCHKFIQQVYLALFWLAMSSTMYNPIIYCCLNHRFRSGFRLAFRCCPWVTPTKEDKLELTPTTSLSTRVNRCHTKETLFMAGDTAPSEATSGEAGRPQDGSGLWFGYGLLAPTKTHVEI
Description: Neurokinin receptor binding assay, [3H]-Neurokinin A competition, CHO cell membranes (NK2). As to conditions: [3H]-Neurokinin A 1.0 nM. On the procedure: as §1, §2, §3

T1 sequence (P25103 whole entry): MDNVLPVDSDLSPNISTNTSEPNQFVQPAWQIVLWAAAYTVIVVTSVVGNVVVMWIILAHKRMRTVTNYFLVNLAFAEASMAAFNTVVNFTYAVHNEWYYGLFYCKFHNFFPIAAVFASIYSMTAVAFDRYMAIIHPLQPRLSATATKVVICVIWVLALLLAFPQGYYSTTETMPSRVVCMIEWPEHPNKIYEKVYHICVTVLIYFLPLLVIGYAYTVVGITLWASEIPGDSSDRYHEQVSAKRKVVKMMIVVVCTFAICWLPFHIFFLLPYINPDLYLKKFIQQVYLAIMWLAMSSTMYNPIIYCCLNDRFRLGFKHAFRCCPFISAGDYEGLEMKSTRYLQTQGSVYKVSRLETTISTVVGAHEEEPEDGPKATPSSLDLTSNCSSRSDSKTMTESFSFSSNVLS

Consider `OCCON=C(COCc1cc(C(F)(F)F)cc(C(F)(F)F)c1)C(CCN1CCC(O)(c2ccccc2)CC1)c1csc2ccccc12` (stereo not shown) [Example 4D], for which the inhibitory constant (Ki) in assay [1] was determined as 1.8 nM; in assay [2] it was 23 nM.

In the case of `CON=C(CN(C)C(=O)c1cc(C)cc(C)c1)C(CCN1CCC(O)(c2ccccc2)CC1)c1csc2ccccc12` (stereo not shown) [Example 7B], the Ki in assay [1] was found to be 0.65 nM; in assay [2], 4.5 nM.

As usually defined, the Ki is the equilibrium dissociation constant of an inhibitor or competing ligand from its target. Lower therefore signals higher affinity.
